One block for each compound: values may come before it.
Key:
[1] = target: T1, LINE1 reverse transcriptase (Homo sapiens, UniProt O00370); assay: Stable artificial-intron Cis LINE1 reporter assay in HeLa Tet-On 3G cells; assay type: cell-based; set-up: expressed in transfected cells; host or cells: HeLa Tet-On 3G (Takara, cat no 631183)
Description: A stable HeLa Tet-On 3G (Takara, cat no 631183) cell line expressing a bi-directional inducible LINE1 construct was generated as described in Xie, Y. et al. “Cell division promotes efficient retrotransposition in a stable L1 reporter cell line,” Mobile DNA (2013) 4:10. Single cell clones were screened for high Luciferase expression and the highest expression Firefly expressing clone was chosen for compound testing.
Test compounds were serially diluted in DMSO and spotted in 96-well plates. Subsequently the HeLa L1 artificial-intron reporter cells were plated into the compound-containing wells (8,000 cells/well), and the cells were induced for reporter expression with doxycycline (Sigma cat no D9891) at a final concentration of 500 ng/mL. Luminescence was measured 72 h after plating using the Dual-Glo Luciferase Assay System (Promega cat no E2940) following the manufacturer's instructions. The Firefly Luciferase activity was used to report LINE1 activity.

[2] = test system: HEK 293 cells; assay: Transient LINE1 reporter assay, Renilla luciferase (RLuc) control readout for potential cell toxicity; assay type: cell-based; conditions: even at the highest dose tested (100 μM), FIG. 1
Procedure: (§1) Intron-disrupted Firefly luciferase (FLuc) expression cassettes were generated as described by Xie, Y. et al. “Characterization of L1 retrotransposition with high-throughput dual-luciferase assays,” Nucleic Acid Res. (2011) Vol. 39, No. 3, e16. In addition, the plasmid contained an intact Renilla luciferase (RLuc) expression cassette on the vector backbone, in order to normalize transfection efficiency and measure potential cell toxicity.
(§2) HEK 293 cells were seeded in 96-well plates at 1,000 cells/well in 55 μL and grown for 24 hours. Cells were transfected with FuGeneHD (Promega) following the manufacturer's protocol. Each well received 0.133 ng plasmid, 0.4 μL FuGeneHD reagent, and 4.5 μL GlutaMAX-I-supplemented Opti-MEM I reduced-serum medium (Invitrogen). Cells were simultaneously treated with test compound serially diluted starting at 100 μM in a 3-fold dilution dose response.
(§3) Luminescence was measured using the Dual-Glo Luciferase Assay System (Promega) following the manufacturer's instructions. The ratio between FLuc and RLuc gene expression was used to report LINE1 activity.

[3] = target: T1, LINE1 reverse transcriptase; assay: Transient artificial-intron Cis LINE1 reporter assay (FLuc/RLuc ratio); assay type: cell-based; set-up: expressed in transfected cells; conditions: HEK 293 cells
Procedure: as §1, §2, §3

[4] = target: T2, HERV-K reverse transcriptase (2-596)-8His protein (Homo sapiens, UniProt V9H0F6); assay: Homogeneous time-resolved fluorescence (HTRF) HERV-K RT assay; assay type: biochemical; conditions: tested as tri(ammonium) salt, read-out: IC50 for inhibition of HERV-K reverse transcriptase
T2 construct: fused on or other part: C-terminal 8His tag
T2 sequence (V9H0F6 entry or part of it): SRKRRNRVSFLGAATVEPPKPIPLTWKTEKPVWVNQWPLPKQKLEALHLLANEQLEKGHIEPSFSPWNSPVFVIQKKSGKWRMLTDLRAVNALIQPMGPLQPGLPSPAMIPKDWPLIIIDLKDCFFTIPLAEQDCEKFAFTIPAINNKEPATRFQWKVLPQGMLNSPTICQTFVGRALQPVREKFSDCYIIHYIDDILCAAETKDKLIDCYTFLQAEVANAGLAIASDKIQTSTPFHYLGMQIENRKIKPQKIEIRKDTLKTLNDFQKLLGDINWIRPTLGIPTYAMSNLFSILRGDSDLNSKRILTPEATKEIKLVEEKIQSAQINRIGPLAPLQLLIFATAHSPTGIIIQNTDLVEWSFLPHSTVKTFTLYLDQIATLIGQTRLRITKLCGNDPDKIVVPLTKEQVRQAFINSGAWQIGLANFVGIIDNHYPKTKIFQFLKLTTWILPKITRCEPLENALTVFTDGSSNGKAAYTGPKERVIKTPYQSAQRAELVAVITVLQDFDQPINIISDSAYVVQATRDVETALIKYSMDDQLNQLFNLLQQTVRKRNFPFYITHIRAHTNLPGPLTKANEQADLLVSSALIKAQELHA
Procedure: The HERV-K reverse transcriptase homogeneous time-resolved fluorescence (HTRF) assay was performed in a 384-well format with HERV-K reverse transcriptase (2-596)-8His protein. Baculoviruses were created using Bac-to-Bac technology (Invitrogen). pFastBac donor plasmids containing HERV-K reverse transcriptase sequence (NCBI GenBank number AAC63291.1, J. Virology (1999) Vol. 73, No. 3, pp. 2365-2375) were transformed into DH10 Bac cells following the manufacturer's instructions. Recombinant bacmids were then isolated clonally and transfected into SF9 cells with lipofectin. HERV-K reverse transcriptase was expressed in the SF9 insect cells and then purified using immobilized metal affinity chromatography (IMAC) followed by size-exclusion chromatography (SEC). […]
(§4) After incubating at 25° C. for 30 minutes, the detection reagent 20 mM EDTA with streptavidin-terbium cryptate (Cisbio Bioassay) in the PPI buffer (Cisbio Bioassay) was added, and the mixture was incubated at 25° C. for 60 minutes. At the end of the incubation, fluorescence was read at ex/em=337/485 nm and ex/em=337/520 nm on an Envision 2104 plate reader (Perkin Elmer). The fluorescence ratio at 520/485 nm was used for the calculation. […] The IC50 was calculated by fitting the compound dose inhibition curve with a 4-parameter non-linear regression equation.

[5] = target: T3, recombinant MBP-tagged LINE1 protein (238-1061) (Homo sapiens, UniProt O00370); assay: Homogeneous time-resolved fluorescence (HTRF) LINE1 RT assay; assay type: biochemical; conditions: tested as tri(ammonium) salt, read-out: IC50 for inhibition of LINE1 reverse transcriptase
T3 construct: recombinant MBP-tagged LINE1 protein (238-1061); made in house
Procedure: The LINE1 reverse transcriptase homogeneous time-resolved fluorescence (HTRF) assay was performed with recombinant MBP-tagged LINE1 protein (238-1061) (generated and purified according to procedures in Dai L. et al. BMC Biochemistry 2011; 12:18) in a 384-well format. Test compound was serially diluted in DMSO and further diluted in the assay buffer (50 mM Tris-HCl, 50 mM KCl, 10 mM MgCl2, 10 mM DTT, pH 8.1) to achieve a final DMSO concentration of 1%. The serially diluted compound was mixed with 64 ng/well of LINE1 enzyme, 5 nM of pre-annealed template/biotin-primer pair (synthesized at Generay Biotechnology), 10 nM of Fluorescein-12-dATP fluorescent probe (Perkin Elmer), and 1 μM dGTP/dCTP/dTTP (Thermo Fisher Scientific) in the assay buffer. The template/biotin-primer sequences were as follows:
as §4, with “for 60” for “for 30”, “reagent (20” for “reagent 20”, “streptavidin-terbium cryptate, Cisbio” for “streptavidin-terbium cryptate (Cisbio”, “for 30” for “for 60”

[6] = HeLa L1 artificial-intron reporter cells, doxycycline induced, 72 h, Firefly luciferase, read-out: IC50
[7] = transient LINE1 reporter, Table 5 of Example 1, read-out: IC50

SMILES: CCOC(=O)[C@H](C)NP(=O)(CO[C@@H]1C=C(F)[C@H](n2cnc3c(N)nc(F)nc32)O1)Oc1ccccc1 (stereo partly drawn) [Compound V-2, ethyl (2S)-2-[({[(2R,5R)-5-(6-amino-2-fluoropurin-9-yl)-4-fluoro-2,5-dihydrofuran-2-yl]oxy}methyl(phenoxy)phosphoryl)amino]propanoate]
IC50 [1]: > 500 nM

SMILES: Nc1ncnc2c1ncn2[C@@H]1O[C@H](OCP(=O)(O)OP(=O)(O)OP(=O)(O)O)C=C1F [IV-1]
IC50 [4]: 120 nM
IC50 [5]: 100 nM

SMILES: CCOC(=O)[C@H](C)N[P@@](=O)(CO[C@@H]1C=C(F)[C@H](n2cnc3c(N)ncnc32)O1)Oc1ccccc1 [II-2, ethyl ((R)-((((2R,5R)-5-(6-amino-9H-purin-9-yl)-4-fluoro-2,5-dihydrofuran-2-yl)oxy)methyl)(phenoxy)phosphoryl)-L-alaninate]
IC50 [1, 6]: < 50 nM
IC50 [3, 7]: < 50 nM

SMILES: CCOC(=O)[C@H](C)N[P@](=O)(CO[C@@H]1C=C(F)[C@H](n2cnc3c(N)ncnc32)O1)Oc1ccccc1 [II-1, ethyl ((S)-((((2R,5R)-5-(6-amino-9H-purin-9-yl)-4-fluoro-2,5-dihydrofuran-2-yl)oxy)methyl)(phenoxy)phosphoryl)-L-alaninate]
IC50 [1, 6]: < 50 nM
IC50 [3, 7]: < 50 nM

Second part, led by results:

IC50 [1, 6]: > 500 nM
SMILES: Nc1nc(F)nc2c1ncn2[C@@H]1O[C@H](OCP(=O)(O)O)C=C1F [Compound V-1, sodium ((((2R,5R)-5-(6-amino-2-fluoro-9H-purin-9-yl)-4-fluoro-2,5-dihydrofuran-2-yl)oxy)methyl)phosphonate]

IC50 ([3]; transient transfection, FIG. 1, read-out: IC50 for inhibition of FLuc (FF/RR)): 1000 nM
SMILES: Nc1ncnc2c1ncn2[C@@H]1O[C@H](OCP(=O)(O)O)C=C1F [Test Compound]
impact on RLuc expression (Renilla) [2]: without any material impact

IC50 [1, 6]: > 500 nM
SMILES: Nc1ncnc2c1ncn2[C@@H]1O[C@H](OCP(=O)(O)O)C=C1F [III-1, Sodium ((((2R,5R)-5-(6-amino-9H-purin-9-yl)-4-fluoro-2,5-dihydrofuran-2-yl)oxy)methyl)phosphonate]
